Active and inactive are the calls of the source. The calls are words filed in the database; no cut-off is given here. Positions of bridges follow the written chain, without caps; N, C: chain ends. Non-standard residues stand in square brackets, D forms with d. Residues, ends and D or L forms follow the SMILES beside them. *: point of attachment. hArg = N=C(N)NCCCC[C@H](N)C(=O)O; X3 = CC[C@H](C)CCCCC(=O)*; Dab = NCC[C@H](N)C(=O)O
Columns and labels:
Escherichia coli = assay: Drug resistance, ratio of MIC for Escherichia coli ATCC 25922 after 40 passages to MIC for Escherichia coli ATCC 25922 during first exposure; assay type: functional
[1] = Hemolytic activity at human Erythrocyte assessed as hemolysis at 100 microg/ml; assay type: toxicity, cell-based; conditions: erythrocytes, at 100 µg/mL, read-out: Activity
Peritoneal macrophage [2] = assay: Antiinflammatory activity in mouse Peritoneal macrophage cells assessed as inhibition of LPS-induced TNF-alpha production at 20 microg/ml incubated for 6 hrs by ELISA analysis; assay type: functional, cell-based; conditions: dose 20.0 µg/ml
Trypsin = Trypsin (Homo sapiens, UniProt P07477+P07478+P35030); assay: Stability of compound assessed as trypsin (unknown origin) mediated drug degradation […] measured after 24 hrs by RP-HPLC analysis; assay type: ADME, protein assay; conditions: read-out: Activity
Staphylococcus aureus = assay: Antimicrobial activity against Staphylococcus aureus CMCC 26003 at 5 times MIC measured at 180 mins; assay type: functional, organism-based
Peritoneal macrophage [3] = assay: Antiinflammatory activity in mouse Peritoneal macrophage cells assessed as inhibition of LPS-induced IL-6 production at 20 microg/ml incubated for 6 hrs by ELISA analysis; assay type: functional, cell-based; conditions: dose 20.0 µg/ml
[4] = Acute toxicity in BALB/c mouse assessed as mortality at 15 mg/kg, iv measured for 24 hrs; assay type: organism-based; conditions: in vivo, read-out: Activity
[5] = Acute toxicity in BALB/c mouse assessed as mortality at 10 mg/kg, iv measured for 24 hrs; assay type: organism-based; conditions: in vivo, read-out: Activity
[6] = Acute toxicity in BALB/c mouse assessed as mortality at 20 mg/kg, iv measured for 24 hrs; assay type: organism-based; conditions: in vivo, read-out: Activity
[7] = Acute toxicity in BALB/c mouse assessed as mortality at 50 mg/kg, iv measured for 24 hrs; assay type: organism-based; conditions: in vivo, read-out: Activity
Peritoneal macrophage [8] = assay: Cytotoxicity against mouse Peritoneal macrophage cells assessed as decrease in cell number at 20 microg/ml; assay type: functional, cell-based; conditions: dose 20.0 µg/ml
HaCaT = assay: Cytotoxicity against human HaCaT cells assessed as survival rate at 100 microg/ml; assay type: functional; conditions: read-out: Survival
Peritoneal macrophage [9] = assay: Cytotoxicity against mouse Peritoneal macrophage cells assessed as survival rate at 100 microg/ml; assay type: functional; conditions: read-out: Survival
B16-F10 = assay: Cytotoxicity against mouse B16-F10 cells assessed as survival rate at 100 microg/ml; assay type: functional; conditions: read-out: Survival
4T1 = assay: Cytotoxicity against mouse 4T1 cells assessed as survival rate at 100 microg/ml; assay type: functional; conditions: read-out: Survival

Row | Compound | Ratio (Escherichia coli) | hemolysis at 100 microg/ml [1] | Activity (Peritoneal macrophage [2]) | metabolised at 24 h (Trypsin) | Activity (Staphylococcus aureus) | Activity (Peritoneal macrophage [3]) | mortality at 24 h [4] | mortality at 24 h [5] | mortality at 24 h [6] | mortality at 24 h [7] | Activity (Peritoneal macrophage [8]) | viability at 100 µg/mL (HaCaT) | viability at 100 µg/mL (Peritoneal macrophage [9]) | viability at 100 µg/mL (B16-F10) | viability at 100 µg/mL (4T1)
1 | C[C@@H](O)[C@H]1C(=O)N2C(C(=O)O)=C(S[C@@H]3CN[C@H](C(=O)N(C)C)C3)[C@H](C)[C@H]12 [MEROPENEM] | 64 | – | – | – | – | – | – | – | – | – | – | – | – | – | –
2 | CC[C@H](C)[C@H](NC(=O)[C@H](CCCCNC(=N)N)NC(=O)[C@H](CO)NC(=O)[C@H](Cc1c[nH]cn1)NC(=O)[C@H](CCCCNC(=N)N)NC(=O)[C@H](CC(C)C)NC(=O)[C@@H](NC(=O)[C@H](CCCCNC(=N)N)NC(=O)CNC(=O)[C@H](CC(C)C)NC(=O)[C@H](CCC(N)=O)NC(=O)[C@H](CCCCNC(=N)N)NC(=O)[C@H](CCCCNC(=N)N)NC(=O)[C@@H](NC(=O)[C@H](CCCCNC(=N)N)NC(=O)[C@H](CCCCNC(=N)N)NC(=O)[C@@H](N)Cc1ccccc1)C(C)C)C(C)C)C(=O)N[C@H](C(=O)N[C@H](C(=O)NCC(=O)NCC(=O)N[C@@H](CCCCNC(=N)N)C(=O)N[C@@H](CCSC)C(=O)N[C@@H](CCCCNC(=N)N)C(=O)N[C@@H](Cc1ccccc1)C(=O)O)C(C)C)[C@@H](C)O (H-F[hArg][hArg]V[hArg][hArg]QLG[hArg]VL[hArg]HS[hArg]ITVGG[hArg]M[hArg]F-OH) | – | < 5% | Active | ~20% | inactive | Active | – | – | – | – | – | – | – | – | –
3 | CC(C)CCCCC(=O)N[C@@H](CCN)C(=O)N[C@H](C(=O)N[C@@H](CCN)C(=O)N[C@H]1CCNC(=O)[C@H]([C@@H](C)O)NC(=O)[C@H](CCN)NC(=O)[C@H](CCN)NC(=O)[C@H](CC(C)C)NC(=O)[C@@H](Cc2ccccc2)NC(=O)[C@H](CCN)NC1=O)[C@@H](C)O.CC[C@H](C)CCCCC(=O)N[C@@H](CCN)C(=O)N[C@H](C(=O)N[C@@H](CCN)C(=O)N[C@H]1CCNC(=O)[C@H]([C@@H](C)O)NC(=O)[C@H](CCN)NC(=O)[C@H](CCN)NC(=O)[C@H](CC(C)C)NC(=O)[C@@H](Cc2ccccc2)NC(=O)[C@H](CCN)NC1=O)[C@@H](C)O (X3-[Dab]T[Dab][Dab][Dab][dF]L[Dab][Dab]T; lactam 4-C) | – | – | – | – | – | – | 100% | 50% | 100% | 100% | – | – | – | – | –
4 | H-RRSRFGRFFKKVRKQLGRVLR-NH2 | – | – | Active | – | inactive | Active | – | – | – | – | Active | 80% | 80% | < 40% | < 40%
5 | H-RRSRFGRFFKKVRKQLGRVLRHSRI-NH2 | 1 | – | Active | – | inactive | Active | – | – | – | – | Active | 80% | 80% | < 40% | < 40%
